Measured values reported in US20230085307A1, “PYRIDAZINONE COMPOUND AND HERBICIDE” (NISSAN CHEMICAL CORPORATION, priority 2019, published 2023).

Tests used:
lambsquarters = assay: Test Example 4: herbicidal effect by soil treatment (Table 19, symbol O); format: in vivo, lambsquarters (Chenopodium album); details: amount of applied herbicide 320 g/ha
Summary of the method: (§1)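 Scoring uses the grading scale of an earlier test, three weeks post-application. Treatment consists of spraying a diluted emulsion formulation across the surface of sterilized diluvial soil in which seeds are buried near 1.5 cm deep; boxes are kept in a greenhouse between 25° C. and 30° C.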

Japanese bulrush [1] = assay: Test Example 2: herbicidal activity, application during weed generation under submerged conditions (Table 17, symbol B); format: in vivo, Japanese bulrush (Schoenoplectus juncoides); details: AAH 320 g/ha; application during weed generation, submerged conditions
Summary of the method: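 3-wk visual-criteria score after one water-surface dose. Emulsion formulation, water-diluted to set rate; applied at 1–2 leaf stage; alluvial soil, 4 cm standing water; seeds co-sown; greenhouse 25–30° C.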

blackgrass [2] = assay: Test Example 4: herbicidal effect by soil treatment (Table 19, symbol J); format: in vivo, blackgrass (Alopecurus myosuroides); details: amount of applied herbicide 320 g/ha
Summary of the method: as §1

persian speedwell [3] = assay: Test Example 5: herbicidal effect by foliage application, plastic box (Table 20, symbol R); format: in vivo, Persian speedwell (Veronica persica); details: 320 g/ha, foliage application after 14-day growth, evaluated three weeks after application
Summary of the method: (§2)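 Post-emergence foliar test in sterilized diluvial soil. Compound applied as water-diluted emulsion at a predetermined rate to 14-day-old plants; evaluation at three weeks.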

Japanese bulrush [4] = assay: Test Example 1: herbicidal activity, application before weed generation under submerged conditions (Table 16, symbol B); format: in vivo, Japanese bulrush (Schoenoplectus juncoides); details: amount of applied herbicide 320 g/ha
Summary of the method: (§3)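 Emulsion formulation, water-diluted to set dose, was put onto the flooded surface (4 cm depth, alluvial soil) the same day weeds were sown and 2.5-leaf rice transplanted. After 3 weeks at 25-30 °C under glass, each species was rated 0 (≤5% kill) to 5 (≥90% kill).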

persian speedwell [5] = assay: Test Example 4: herbicidal effect by soil treatment (Table 19, symbol R); format: in vivo, Persian speedwell (Veronica persica); details: amount of applied herbicide 320 g/ha
Summary of the method: as §1

Italian ryegrass [6] = assay: Test Example 4: herbicidal effect by soil treatment (Table 19, symbol K); format: in vivo, Italian ryegrass (Lolium multiflorum); details: amount of applied herbicide 320 g/ha
Summary of the method: as §1

oval-leafed pondweed = assay: Test Example 1: herbicidal activity, application before weed generation under submerged conditions (Table 16, symbol C); format: in vivo, oval-leafed pondweed (Monochoria vaginalis); details: amount of applied herbicide 320 g/ha
Summary of the method: as §3

Italian ryegrass [7] = assay: Test Example 5: herbicidal effect by foliage application, plastic box (Table 20, symbol K); format: in vivo, Italian ryegrass (Lolium multiflorum); details: 320 g/ha, foliage application after 14-day growth, evaluated three weeks after application
Summary of the method: as §2

southern crabgrass [8] = assay: Test Example 5: herbicidal effect by foliage application, plastic box (Table 20, symbol F); format: in vivo, southern crabgrass (Digitaria ciliaris); details: 320 g/ha, foliage application after 14-day growth, evaluated three weeks after application
Summary of the method: as §2

wild oat = assay: Test Example 4: herbicidal effect by soil treatment (Table 19, symbol I); format: in vivo, wild oat (Avena fatua); details: amount of applied herbicide 320 g/ha
Summary of the method: as §1

barnyard grass = assay: Test Example 4: herbicidal effect by soil treatment (Table 19, symbol H); format: in vivo, barnyard grass (Echinochloa crus-galli); details: amount of applied herbicide 320 g/ha
Summary of the method: as §1

rice flat sedge = assay: Test Example 3: herbicidal effect by foliage application, Wagner pot (Table 18, symbol E); format: in vivo, rice flat sedge (Cyperus iria); details: 320 g/ha
Summary of the method: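 Plants were sown in alluvial soil held under 0.1–0.5 cm standing water and grown 14 days in a greenhouse at 25–30 °C. An emulsifiable formulation, water-diluted to the set dose, was then sprayed onto the foliage, and effects were scored three weeks later using previously defined criteria.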

blackgrass [9] = assay: Test Example 5: herbicidal effect by foliage application, plastic box (Table 20, symbol J); format: in vivo, blackgrass (Alopecurus myosuroides); details: 320 g/ha, foliage application after 14-day growth, evaluated three weeks after application
Summary of the method: as §2

chickweed [10] = assay: Test Example 4: herbicidal effect by soil treatment (Table 19, symbol P); format: in vivo, common chickweed (Stellaria media); details: amount of applied herbicide 320 g/ha
Summary of the method: as §1

chickweed [11] = assay: Test Example 5: herbicidal effect by foliage application, plastic box (Table 20, symbol P); format: in vivo, common chickweed (Stellaria media); details: 320 g/ha, foliage application after 14-day growth, evaluated three weeks after application
Summary of the method: as §2

southern crabgrass [12] = assay: Test Example 4: herbicidal effect by soil treatment (Table 19, symbol F); format: in vivo, southern crabgrass (Digitaria ciliaris); details: amount of applied herbicide 320 g/ha
Summary of the method: as §1

SMILES | Herbicidal effect by soil treatment, O: lambsquarters (lambsquarters) | herbicidal effect rating, B: Japanese bulrush (Japanese bulrush [1]) | Herbicidal effect by soil treatment, J: blackgrass (blackgrass [2]) | herbicidal effect on R: persian speedwell (evaluation grade 0-5) (persian speedwell [3]) | Herbicidal effect, B: Japanese bulrush (Japanese bulrush [4]) | Herbicidal effect by soil treatment, R: persian speedwell (persian speedwell [5]) | Herbicidal effect by soil treatment, K: Italian ryegrass (Italian ryegrass [6]) | Herbicidal effect, C: oval-leafed pondweed (oval-leafed pondweed) | herbicidal effect on K: Italian ryegrass (evaluation grade 0-5) (Italian ryegrass [7]) | herbicidal effect on F: southern crabgrass (evaluation grade 0-5) (southern crabgrass [8]) | Herbicidal effect by soil treatment, I: wild oat (wild oat) | Herbicidal effect by soil treatment, H: barnyard grass (barnyard grass) | herbicidal effect on rice flat sedge (E) (rice flat sedge) | herbicidal effect on J: blackgrass (evaluation grade 0-5) (blackgrass [9]) | Herbicidal effect by soil treatment, P: chickweed (chickweed [10]) | herbicidal effect on P: chickweed (evaluation grade 0-5) (chickweed [11]) | Herbicidal effect by soil treatment, F: southern crabgrass (southern crabgrass [12])
C=C(C)C(=O)Oc1c(C)nn(C)c(=O)c1-c1c(-c2ccccc2OC)sc2cc(OC)ccc12 [3-155] | 0 (Herbicidal rate of 5% or less (almost no effect)) | 5 (Herbicidal rate of 90% or more (almost completely withered)) | 4 (Herbicidal rate of 70% or more and less than 90%) | 5 (Herbicidal rate of 90% or more (almost completely withered)) | 5 (Herbicidal rate of 90% or more (almost completely withered)) | 0 (Herbicidal rate of 5% or less (almost no effect)) | 3 (Herbicidal rate of 40% or more and less than 70%) | 5 (Herbicidal rate of 90% or more (almost completely withered)) | 4 (Herbicidal rate of 70% or more and less than 90%) | 5 (Herbicidal rate of 90% or more (almost completely withered)) | 0 (Herbicidal rate of 5% or less (almost no effect)) | 2 (Herbicidal rate of 20% or more and less than 40%) | 4 (Herbicidal rate of 70% or more and less than 90%) | 5 (Herbicidal rate of 90% or more (almost completely withered)) | 1 (Herbicidal rate of 5% or more and less than 20%) | 5 (Herbicidal rate of 90% or more (almost completely withered)) | 0 (Herbicidal rate of 5% or less (almost no effect))
COc1ccc2c(-c3c(OC(=O)c4ccccc4OC)c(C)nn(C)c3=O)c(-c3ccccc3OC)sc2c1 [3-158] | 0 (Herbicidal rate of 5% or less (almost no effect)) | 3 (Herbicidal rate of 40% or more and less than 70%) | 0 (Herbicidal rate of 5% or less (almost no effect)) | 5 (Herbicidal rate of 90% or more (almost completely withered)) | 5 (Herbicidal rate of 90% or more (almost completely withered)) | 0 (Herbicidal rate of 5% or less (almost no effect)) | 0 (Herbicidal rate of 5% or less (almost no effect)) | 5 (Herbicidal rate of 90% or more (almost completely withered)) | 4 (Herbicidal rate of 70% or more and less than 90%) | 5 (Herbicidal rate of 90% or more (almost completely withered)) | 0 (Herbicidal rate of 5% or less (almost no effect)) | 0 (Herbicidal rate of 5% or less (almost no effect)) | 4 (Herbicidal rate of 70% or more and less than 90%) | 5 (Herbicidal rate of 90% or more (almost completely withered)) | 1 (Herbicidal rate of 5% or more and less than 20%) | 5 (Herbicidal rate of 90% or more (almost completely withered)) | 0 (Herbicidal rate of 5% or less (almost no effect))
CCCC(=O)Oc1c(C)nn(C)c(=O)c1-c1c(-c2ccc(OC)cc2)sc2c(F)cccc12 [4-006] | 4 (Herbicidal rate of 70% or more and less than 90%) | 3 (Herbicidal rate of 40% or more and less than 70%) | 0 (Herbicidal rate of 5% or less (almost no effect)) | 3 (Herbicidal rate of 40% or more and less than 70%) | 3 (Herbicidal rate of 40% or more and less than 70%) | 0 (Herbicidal rate of 5% or less (almost no effect)) | 0 (Herbicidal rate of 5% or less (almost no effect)) | 0 (Herbicidal rate of 5% or less (almost no effect)) | 4 (Herbicidal rate of 70% or more and less than 90%) | 1 (Herbicidal rate of 5% or more and less than 20%) | 0 (Herbicidal rate of 5% or less (almost no effect)) | 4 (Herbicidal rate of 70% or more and less than 90%) | 5 (Herbicidal rate of 90% or more (almost completely withered)) | 1 (Herbicidal rate of 5% or more and less than 20%) | 0 (Herbicidal rate of 5% or less (almost no effect)) | 5 (Herbicidal rate of 90% or more (almost completely withered)) | 0 (Herbicidal rate of 5% or less (almost no effect))
CCCOc1ccc(-c2sc3c(Cl)cccc3c2-c2c(OC(=O)CCC)c(C)nn(C)c2=O)cc1 [4-028] | 4 (Herbicidal rate of 70% or more and less than 90%) | 3 (Herbicidal rate of 40% or more and less than 70%) | 0 (Herbicidal rate of 5% or less (almost no effect)) | 5 (Herbicidal rate of 90% or more (almost completely withered)) | 3 (Herbicidal rate of 40% or more and less than 70%) | 1 (Herbicidal rate of 5% or more and less than 20%) | 0 (Herbicidal rate of 5% or less (almost no effect)) | 0 (Herbicidal rate of 5% or less (almost no effect)) | 2 (Herbicidal rate of 20% or more and less than 40%) | 0 (Herbicidal rate of 5% or less (almost no effect)) | 0 (Herbicidal rate of 5% or less (almost no effect)) | 0 (Herbicidal rate of 5% or less (almost no effect)) | 5 (Herbicidal rate of 90% or more (almost completely withered)) | 0 (Herbicidal rate of 5% or less (almost no effect)) | 0 (Herbicidal rate of 5% or less (almost no effect)) | 5 (Herbicidal rate of 90% or more (almost completely withered)) | 0 (Herbicidal rate of 5% or less (almost no effect))
